Values quoted from earlier work, collected in article PMC3779694 (Hepatology (Baltimore, Md.), 2011).

Tested on: subjects with a variety of chronic liver diseases, mostly chronic hepatitis C
Conditions: five subjects with NASH, 14-day regimen; cited from earlier work

For `C[C@H](NC(=O)C(=O)Nc1ccccc1C(C)(C)C)C(=O)N[C@@H](CC(=O)O)C(=O)COc1c(F)c(F)cc(F)c1F` [IDN-6556], the “ALT reduction in subjects with NASH” value is listed as 59%.
